Experimental data: ChEMBL document CHEMBL1133979, “1,2,4-triazolo[3,4-a]pyridine as a novel, constrained template for fibrinogen receptor (GPIIb/IIIa) antagonists” (Bioorg Med Chem Lett, 2001); call rule not given here

How the values were obtained:
[1] = Half life in dog; assay type: ADME, organism-based, Canis lupus familiaris; details: in vivo
[2] = Oral bioavailability in dog; assay type: ADME, organism-based, Canis lupus familiaris; details: in vivo
Canis familiaris = test: Ex vivo oral duration for maintaining at least 50% inhibition of platelet aggregation induced by adenosine diphosphate after administration at a dose of at 1 mg/kg; assay type: functional, Canis lupus familiaris
[3] = molecular target: T1, Integrin alpha-IIb/beta-3 (Homo sapiens, UniProt P05106+P08514); test: Inhibition of biotinylated fibrinogen binding to immobilized integrin GPIIb/IIIa; assay type: protein-complex assay
T1 sequence (P05106 27-788 limits assumed): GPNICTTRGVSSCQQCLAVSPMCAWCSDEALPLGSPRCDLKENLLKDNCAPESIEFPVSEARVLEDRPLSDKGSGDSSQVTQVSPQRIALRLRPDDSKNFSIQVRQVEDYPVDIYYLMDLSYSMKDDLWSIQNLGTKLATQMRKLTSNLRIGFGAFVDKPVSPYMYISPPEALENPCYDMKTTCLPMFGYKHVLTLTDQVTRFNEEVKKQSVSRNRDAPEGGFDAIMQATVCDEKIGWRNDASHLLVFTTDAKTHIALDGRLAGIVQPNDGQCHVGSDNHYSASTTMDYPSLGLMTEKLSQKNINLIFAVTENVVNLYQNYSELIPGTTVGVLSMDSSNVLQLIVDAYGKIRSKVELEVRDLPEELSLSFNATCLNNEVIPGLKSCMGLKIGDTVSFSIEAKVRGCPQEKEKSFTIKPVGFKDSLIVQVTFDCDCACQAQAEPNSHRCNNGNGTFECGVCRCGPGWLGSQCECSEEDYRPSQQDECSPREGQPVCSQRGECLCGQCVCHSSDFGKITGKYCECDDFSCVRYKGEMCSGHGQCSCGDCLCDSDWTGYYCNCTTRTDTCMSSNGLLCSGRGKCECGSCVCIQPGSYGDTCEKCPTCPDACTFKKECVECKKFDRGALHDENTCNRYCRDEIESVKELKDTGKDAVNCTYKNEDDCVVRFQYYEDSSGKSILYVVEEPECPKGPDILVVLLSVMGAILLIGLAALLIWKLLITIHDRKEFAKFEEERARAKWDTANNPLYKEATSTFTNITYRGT
T1 sequence (P08514 32-887 limits assumed): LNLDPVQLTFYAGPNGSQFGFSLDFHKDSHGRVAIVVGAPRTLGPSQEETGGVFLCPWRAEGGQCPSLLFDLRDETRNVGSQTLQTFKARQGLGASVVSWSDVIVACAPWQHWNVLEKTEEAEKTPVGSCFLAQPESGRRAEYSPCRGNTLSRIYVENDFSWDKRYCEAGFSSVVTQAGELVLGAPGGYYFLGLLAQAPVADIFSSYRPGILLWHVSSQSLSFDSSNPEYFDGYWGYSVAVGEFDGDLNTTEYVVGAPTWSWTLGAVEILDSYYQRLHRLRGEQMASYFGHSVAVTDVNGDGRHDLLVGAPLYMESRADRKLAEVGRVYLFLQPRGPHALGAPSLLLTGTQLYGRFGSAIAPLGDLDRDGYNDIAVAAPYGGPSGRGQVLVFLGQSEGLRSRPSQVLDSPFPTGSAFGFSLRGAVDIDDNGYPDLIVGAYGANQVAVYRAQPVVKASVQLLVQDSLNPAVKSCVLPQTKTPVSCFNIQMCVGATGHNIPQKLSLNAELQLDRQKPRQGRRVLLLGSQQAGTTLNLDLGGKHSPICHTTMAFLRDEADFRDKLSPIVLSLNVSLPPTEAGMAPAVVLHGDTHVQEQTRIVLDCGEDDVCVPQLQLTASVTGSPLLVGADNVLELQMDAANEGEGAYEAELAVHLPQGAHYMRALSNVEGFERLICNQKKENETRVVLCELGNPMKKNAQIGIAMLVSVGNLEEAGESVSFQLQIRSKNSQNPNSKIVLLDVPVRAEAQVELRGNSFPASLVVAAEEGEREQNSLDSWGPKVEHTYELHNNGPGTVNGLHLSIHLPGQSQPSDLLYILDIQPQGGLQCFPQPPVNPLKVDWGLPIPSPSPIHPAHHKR
T1 sequence (P08514 891-1039 limits assumed): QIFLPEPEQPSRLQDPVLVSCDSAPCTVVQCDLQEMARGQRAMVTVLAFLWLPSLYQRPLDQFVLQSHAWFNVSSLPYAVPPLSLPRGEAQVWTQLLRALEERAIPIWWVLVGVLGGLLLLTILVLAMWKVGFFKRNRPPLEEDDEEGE

[4] = molecular target: T1, Integrin alpha-IIb/beta-3; test: Inhibition of thrombin-induced human gel-filtered platelet aggregation at 50 uM; NA= Inactive; assay type: functional

Structure (SMILES) | Oral duration (Canis familiaris) [h] | IC50 [3] [nM] | also measured
O=C(O)C[C@H](NC(=O)[C@@H]1CCCN(C(=O)CCC2CCNCC2)C1)c1cccnc1 [ELAROFIBAN] | 5 | 0.36 | half-life [1]: 5 h; bioavailability ([2]; read-out: Bioavailabiility): 16%
O=C(N[C@@H](CNC(=O)C1CCCn2c(/C=C/C3CCNCC3)nnc21)C(=O)O)OCc1ccccc1 (stereo not given in full) | >6 | 0.32 | bioavailability [2]: 23%
O=C(N[C@@H](CNC(=O)[C@@H]1CCCN(C(=O)CCC2CCNCC2)C1)C(=O)O)OCc1ccccc1 | 3 | 0.17 | 
O=C(O)C[C@H](NC(=O)c1cccn2c(/C=C/C3CCNCC3)nnc12)c1cccnc1 |  |  | IC50 [4]: Not Active
O=C(O)C[C@H](NC(=O)C1CCCn2c(/C=C/C3CCNCC3)nnc21)c1cnc2ccccc2c1 (stereo not given in full) | 4.5 |  | 
O=C(O)C[C@H](NC(=O)C1CCCn2c(/C=C/C3CCNCC3)nnc21)c1cccnc1 (stereo not given in full) | >6 | 0.21 | bioavailability [2]: 31%
O=C(NC[C@H](NS(=O)(=O)Cc1ccccc1)C(=O)O)C1CCCn2c(/C=C/C3CCNCC3)nnc21 (stereo not given in full) | <0.5 |  | 
O=C(N[C@@H](CNC(=O)C1CCCn2c(CCC3CCNCC3)nnc21)C(=O)O)OCc1ccccc1 (stereo not given in full) | 4 |  | 
O=C(O)C[C@H](NC(=O)c1cccn2c(CCC3CCNCC3)nnc12)c1cccnc1 |  | 4.2 | 
CC1(C(=O)NC[C@H](NC(=O)OCc2ccccc2)C(=O)O)CCCn2c(CCC3CCNCC3)nnc21 (stereo not given in full) | <0.5 |  | 
O=C(O)C[C@H](NC(=O)C1CCCn2c(CCC3CCNCC3)nnc21)c1cccnc1 (stereo not given in full) | 3 | 0.53 | 
